# Several values for one entry are separate records, joined by “and”; a condition that tells them apart may be missing. Equal entries are not always repeated. Toxic doses and inconclusive results are not listed. Where a SMILES comes first, the peptide text is derived from it.
# Test system: B6C3F1 mice, B16 melanoma ip, median survival T/C
# Assay: NCI In Vivo Anticancer Drug Screen. Data for tumor model B16 Melanoma (intraperitoneal) in B6C3F1 mice
# Settings: endpoint: median survival time, schedule: Q01DX009 (ip), higher = longer survival
# How it was run: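 Tumor-bearing mice received test compound; a separate group got vehicle only. Survival was then compared, with results reported as treated over control.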
# [1] = dose: 3.12 mg/kg/injection, vehicle: Klucel (hydroxypropylcellulose) (HPC)
# [2] = dose: 6.25 mg/kg/injection, vehicle: Klucel (hydroxypropylcellulose) (HPC)
# [3] = dose: 12.5 mg/kg/injection, vehicle: Klucel (hydroxypropylcellulose) (HPC)
# [4] = dose: 100.0 mg/kg/injection, vehicle: saline
# [5] = dose: 1.56 mg/kg/injection, vehicle: Klucel (hydroxypropylcellulose) (HPC)
# [6] = dose: 12.5 mg/kg/injection, vehicle: saline
# [7] = dose: 25.0 mg/kg/injection, vehicle: saline
# [8] = dose: 50.0 mg/kg/injection, vehicle: saline
# [9] = dose: 200.0 mg/kg/injection, vehicle: saline
# [10] = dose: 400.0 mg/kg/injection, vehicle: saline
# [11] = dose: 12.5 mg/kg/injection, vehicle: saline with Tween-80
# [12] = dose: 25.0 mg/kg/injection, vehicle: saline with Tween-80
# [13] = dose: 50.0 mg/kg/injection, vehicle: saline with Tween-80
# [14] = dose: 100.0 mg/kg/injection, vehicle: saline with Tween-80
# [15] = dose: 200.0 mg/kg/injection, vehicle: saline with Tween-80
smiles,measurement,setting,value
Cc1cc(NCCCCCCNc2cc(C)nc3cc(N(C)C)ccc23)c2ccc(N(C)C)cc2n1,T/C,"dose: 3.13 mg/kg/injection, vehicle: distilled water + Tween-80 + alcohol",100 % of control
same,T/C,"dose: 6.25 mg/kg/injection, vehicle: distilled water + Tween-80 + alcohol",112 % of control
same,T/C,"dose: 12.5 mg/kg/injection, vehicle: distilled water + Tween-80 + alcohol",112 % of control and 122 % of control
CC(C)(C)OC(=O)NC(Cc1c[nH]c2ccccc12)C(=O)O (stereo unspecified),T/C,"dose: 100.0 mg/kg/injection, vehicle: distilled water + alcohol",94 % of control
same,T/C,"dose: 200.0 mg/kg/injection, vehicle: distilled water + alcohol",94 % of control
C=C1C(=O)O[C@@H]2C[C@@H](C)[C@@H]3C=CC(=O)[C@@]3(C)[C@@H](OC(=O)CC(=O)O[C@H]3[C@@H]4C(=C)C(=O)O[C@@H]4C[C@@H](C)[C@@H]4C=CC(=O)[C@]43C)[C@H]12,T/C,"dose: 0.25 mg/kg/injection, vehicle: saline with Tween-80",88 % of control
same,T/C,"dose: 0.5 mg/kg/injection, vehicle: saline with Tween-80",96 % of control
same,T/C,"dose: 1.0 mg/kg/injection, vehicle: saline with Tween-80",102 % of control
same,T/C,"dose: 2.0 mg/kg/injection, vehicle: saline with Tween-80",110 % of control
same,T/C,"dose: 4.0 mg/kg/injection, vehicle: saline with Tween-80",116 % of control
S=C1NCc2cncnc2N1,T/C,[1],108 % of control
same,T/C,[2],107 % of control
same,T/C,[3],88 % of control and 102 % of control
NC(CCCNc1ccc(O)cc1)C(=O)O (stereo unspecified),T/C,"dose: 75.0 mg/kg/injection, vehicle: saline",122 % of control
same,T/C,[4],98 % of control
same,T/C,"dose: 150.0 mg/kg/injection, vehicle: saline",106 % of control
CCCCCC[Se][Se]CCCCCC,T/C,[5],97 % of control
same,T/C,[1],106 % of control
same,T/C,[2],95 % of control
CC(C)C(N)C(=O)Nc1nncs1 (stereo unspecified),T/C,[6],102 % of control
same,T/C,[7],104 % of control
same,T/C,[8],98 % of control
same,T/C,[4],113 % of control
same,T/C,[9],114 % of control
same,T/C,[10],117 % of control
[Cl][Mn][Cl],T/C,"dose: 2.0 mg/kg/injection, vehicle: saline",115 % of control and 107 % of control
same,T/C,"dose: 4.0 mg/kg/injection, vehicle: saline",96 % of control and 103 % of control and 106 % of control
same,T/C,"dose: 8.0 mg/kg/injection, vehicle: saline",112 % of control and 98 % of control
same,T/C,"dose: 16.0 mg/kg/injection, vehicle: saline",104 % of control
same,T/C,"dose: 32.0 mg/kg/injection, vehicle: saline",155 % of control
same,T/C,"dose: 64.0 mg/kg/injection, vehicle: saline",152 % of control and 160 % of control
CCC(N)C(=O)NCC(=O)NCC(=O)O (stereo unspecified) (HELM PEPTIDE1{[CCC(N)C(=O)[*:2]].G.G}$$$$V2.0),T/C,[4],105 % of control
same,T/C,[9],108 % of control
same,T/C,[10],109 % of control
COc1cc2c(c(OC)c1OC)-c1ccc(OC)c(=O)cc1[C@@H](NC(C)=O)CC2,T/C,"dose: 0.02 mg/kg/injection, vehicle: saline",108 % of control
same,T/C,"dose: 0.04 mg/kg/injection, vehicle: saline",123 % of control
same,T/C,"dose: 0.13 mg/kg/injection, vehicle: Klucel (hydroxypropylcellulose) (HPC)",158 % of control
same,T/C,"dose: 0.19 mg/kg/injection, vehicle: saline",156 % of control
same,T/C,"dose: 0.25 mg/kg/injection, vehicle: Klucel (hydroxypropylcellulose) (HPC)",155 % of control
same,T/C,"dose: 0.25 mg/kg/injection, vehicle: saline",164 % of control
same,T/C,"dose: 0.37 mg/kg/injection, vehicle: saline",167 % of control
same,T/C,"dose: 0.38 mg/kg/injection, vehicle: saline",168 % of control
same,T/C,"dose: 0.5 mg/kg/injection, vehicle: Klucel (hydroxypropylcellulose) (HPC)",173 % of control
same,T/C,"dose: 0.5 mg/kg/injection, vehicle: saline",154 % of control
same,T/C,"dose: 0.5 mg/kg/injection, vehicle: water",157 % of control
same,T/C,"dose: 1.0 mg/kg/injection, vehicle: saline",154 % of control
same,T/C,"dose: 125.0 micrograms/kg/injection, vehicle: water",161 % of control
same,T/C,"dose: 250.0 micrograms/kg/injection, vehicle: water",154 % of control
same,T/C,"dose: 500.0 micrograms/kg/injection, vehicle: water",155 % of control
O=C(N/N=C/c1cccc(O)c1O)N/N=C/c1cccc(O)c1O,T/C,[11],118 % of control
same,T/C,[12],112 % of control
same,T/C,[13],116 % of control
same,T/C,[14],106 % of control
same,T/C,[15],106 % of control
O=C1c2ccccc2CCC1Cl (stereo unspecified),T/C,"dose: 1.5 mg/kg/injection, vehicle: DMSO",87 % of control
same,T/C,"dose: 3.0 mg/kg/injection, vehicle: DMSO",86 % of control and 87 % of control and 88 % of control
same,T/C,"dose: 12.0 mg/kg/injection, vehicle: DMSO",89 % of control
same,T/C,"dose: 1.2 micrograms/kg/injection, vehicle: DMSO",91 % of control
same,T/C,"dose: 2.5 micrograms/kg/injection, vehicle: DMSO",86 % of control
same,T/C,"dose: 5.0 micrograms/kg/injection, vehicle: DMSO",87 % of control
same,T/C,"dose: 10.0 micrograms/kg/injection, vehicle: DMSO",88 % of control
C(C#CCN1CCOCC1)#CCN1CCOCC1,T/C,[3],102 % of control
same,T/C,[11],105 % of control
same,T/C,"dose: 25.0 mg/kg/injection, vehicle: Klucel (hydroxypropylcellulose) (HPC)",110 % of control
same,T/C,[12],106 % of control
same,T/C,"dose: 50.0 mg/kg/injection, vehicle: Klucel (hydroxypropylcellulose) (HPC)",105 % of control
same,T/C,[13],106 % of control
same,T/C,"dose: 100.0 mg/kg/injection, vehicle: Klucel (hydroxypropylcellulose) (HPC)",121 % of control
same,T/C,[14],111 % of control
same,T/C,"dose: 200.0 mg/kg/injection, vehicle: Klucel (hydroxypropylcellulose) (HPC)",107 % of control
same,T/C,[15],98 % of control
same,T/C,"dose: 400.0 mg/kg/injection, vehicle: Klucel (hydroxypropylcellulose) (HPC)",91 % of control
same,T/C,"dose: 400.0 mg/kg/injection, vehicle: saline with Tween-80",86 % of control
CC1(C)CC(=O)C(CSC(=O)c2ccccc2)C(=O)C1,T/C,[5],94 % of control
same,T/C,[1],97 % of control and 99 % of control
same,T/C,[2],98 % of control
same,T/C,[3],93 % of control
CN1c2c(nc(N)[nH]c2=O)NCC1CCNc1ccc(C(=O)NC(CCC(=O)O)C(=O)O)cc1 (stereo unspecified),T/C,"dose: 50.0 mg/kg/injection, vehicle: sodium bicarbonate",105 % of control
same,T/C,"dose: 100.0 mg/kg/injection, vehicle: sodium bicarbonate",114 % of control
COC1/C=C/O[C@@]2(C)Oc3c(C)c(O)c4c(O)c(cc(O)c4c3C2=O)NC(=O)/C(C)=C\C=C\[C@H](C)C(O)[C@@H](C)[C@@H](O)[C@@H](C)[C@H](OC(C)=O)[C@@H]1C (stereo partly specified),T/C,[11],95 % of control
same,T/C,[12],97 % of control
same,T/C,[13],93 % of control
same,T/C,[14],95 % of control
c1cc[c]([Sn]([NH]c2ncnc3[nH]cnc23)([NH]c2ncnc3[nH]cnc23)[c]2ccccc2)cc1,T/C,[6],105 % of control
same,T/C,[7],100 % of control
same,T/C,[8],100 % of control
same,T/C,[4],106 % of control
same,T/C,[9],116 % of control
Cc1ccc([NH-])c([NH-])c1.[Cl][Pt+2][Cl],T/C,"dose: 0.63 mg/kg/injection, vehicle: saline with Tween-80",114 % of control
same,T/C,"dose: 5.0 mg/kg/injection, vehicle: saline with Tween-80",157 % of control
same,T/C,"dose: 10.0 mg/kg/injection, vehicle: saline with Tween-80",160 % of control
